Measured values: patent US20240116926A1, “HETEROAROMATIC COMPOUNDS” (AstraZeneca AB, priority 2022, published 2024)
Values after ≈ are worked out from the molar mass of the structure shown.

Key:
[1] = system: MCF7-Tead cell line; assay: TEAD reporter assay; type: cell-based; conditions: MCF7-Tead cells, luciferase activity after 24 hours
Method: (§1) MCF7-Tead cell line was obtained from BPS BIOSCIENCE (catalog number 60618) and was maintained in DMEM containing 10% fetal calf serum, 2 mM glutamine, and 400 μg/ml G418. Cells were grown in a humidified incubator at 37° C. with 5% CO2. Cells were distributed to flat bottom white polystyrene TC treated 384 well plates at a density of 3,500 cells/well in 30 uL. Cells were incubated for 24 hours at 37° C. with 5% CO2. Cells were acoustically dosed using an Echo 555, with compounds serially diluted in 100% DMSO. Plates were incubated for an additional 24 hours. Cells were examined for luciferase activity through the addition of 30 μL Bright-Glo luciferase (Promega catalog number E2620). Plates were incubated for 10 minutes at room temperature and luminescence was read using Tecan plate reader. The data obtained with each compound was exported to […] software to perform curve fitting analysis.

[2] = system: MCF7-Luciferase cell line; assay: Control reporter (MCF7-Luciferase); type: cell-based; conditions: MCF7-Luciferase cells, luciferase activity after 24 hours
Method: (iii) Control Reporter (MCF7-Luciferase)
as §1, with “MCF7-Luciferase” for “MCF7-Tead”, “BPS BIOSCIENCE” left out, “SC050-L)” for “60618)”, “glutamine.” for “glutamine, and 400 μg/ml G418.”, “μL.” for “uL.”

[3] = Solubility (thermodynamic, shake-flask); type: physicochemical; conditions: thermodynamic from solid; aqueous phosphate buffer (pH 7.4), 24 hours at 25° C.
Method: The thermodynamic solubility of a research compound is measured under standard conditions. It is a shake-flask approach that uses 10 mM DMSO solutions which are supplied from the Compound Managements liquid store and is a high throughput method. The dried compounds are equilibrated in an aqueous phosphate buffer (pH 7.4) for 24 hours at 25° C., the portion with the dissolved compound is then separated from the remains. The solutions are analyzed and quantified using UPLC/MS/MS, QC-samples are incorporated in each assay-run to ensure the quality of the assay.

[4] = target: TEAD4(217-434) (Homo sapiens (Human), UniProt Q15561); assay: TEAD4 FRET; type: binding; conditions: depalmitoylated, biotinylated TEAD4(217-434), FAM labelled Probe A, 120 min at 25° C.
Chain of TEAD4(217-434) (Q15561 217-434): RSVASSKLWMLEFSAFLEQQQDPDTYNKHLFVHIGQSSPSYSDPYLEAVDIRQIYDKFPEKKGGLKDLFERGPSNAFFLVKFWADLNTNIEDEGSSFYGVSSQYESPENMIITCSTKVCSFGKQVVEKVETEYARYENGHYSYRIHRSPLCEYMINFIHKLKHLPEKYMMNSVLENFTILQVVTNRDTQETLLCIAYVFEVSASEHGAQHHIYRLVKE
Method: Compounds were dosed with a final DMSO concentration of 1% (v/v). Compound IC50 values were assessed following a 10-point, half-log10 dilution schema starting at 100 μM compound concentration. Specifically, human TEAD protein from TEAD4(217-434) was cloned into an overexpression vector, expressed as an N-terminal HIS-TEV-Avi-tagged fusion protein in E coli, and subsequently purified, then protein was chemically depalmitoylated & biotinylated. The assay was performed in 384-well LV plates (384-well black, medium binding, PS, HIBASE, GREINER #784076) and run in the presence and absence of the compound of interest. Each well of 5 μL assay mixture contained 10 mM Tris-HCl (pH 7.5), 100 mM NaCl, 0.05 mM EDTA, 1 mM TECP, 1% DMSO, 0.03% Pluronic acid F127, 20 nM dePal Avi TEAD4 (217-434)-depalmitoylated & biotinylated protein, 0.8 nM Streptavidin Terbium cryptate (CisBio #610SATLB), 625 nM FAM labelled Probe A. Reactions were incubated at 25° C. for 120 min before reading on a PHERASTAR FSX Plate Reader (337 520 490 HTRF module required) (Supplier BMP).
The data file from the PHERAstar FSX contains both the acceptor (520 nm) and donor channels (490 nm) (“Channel A”=acceptor channel (520 nm), “Channel B”=donor channel (490 nm)). The ratio of the donor and acceptor (Channel A/Channel B) is calculated within Genedata Assay Analyzer.
Probe A is 3′,6′-dihydroxy-3-oxo-N-{8-[2-(5-{2-[4-(trifluoromethyl)anilino]phenyl}-2H-tetrazol-2-yl)acetamido]octyl}-3H-spiro[[2]benzofuran-1,9′-xanthene]-5-carboxamide;

Row | SMILES | IC50 [1] | IC50 [2] | solubility at 24 h [3] | IC50 [4]
1 | C=CC(=O)N1C[C@H](C#N)[C@H](Nc2nnc(-c3ccc(C(F)(F)F)cc3)c3ccccc23)C1 (single isomer, unassigned; enantiomer 1) [Example 29, enantiomer 1 of cis-1-acryloyl-4-((4-(4-(trifluoromethyl)phenyl)phthalazin-1-yl)amino)pyrrolidine-3-carbonitrile] | 0.094 µM | 22.2 µM | 7 µM (≈ 3.06 µg/mL) | –
2 | C=CC(=O)N1CC(C#N)[C@@H](Nc2nnc(-c3ccc(C(F)(F)F)cc3)c3ccccc23)C1 (single isomer, unassigned; enantiomer 1) [Example 30, enantiomer 1 of trans-1-acryloyl-4-((4-(4-(trifluoromethyl)phenyl)phthalazin-1-yl)amino)pyrrolidine-3-carbonitrile] | 0.143 µM | 13 µM | 191 µM (≈ 83.5 µg/mL) | 0.1 µM
3 | C=CC(=O)N1C[C@H](Nc2nnc(-c3ccc(C(F)(F)F)cc3)c3ccccc23)[C@@H](C(N)=O)C1 (single isomer, unassigned; enantiomer 1) [Example 31, enantiomer 1 of trans-1-acryloyl-4-((4-(4-(trifluoromethyl)phenyl)phthalazin-1-yl)amino)pyrrolidine-3-carboxamide] | 0.058 µM | 31.1 µM | 534 µM (≈ 243 µg/mL) | 0.073 µM
4 | C=CC(=O)N1CC[C@@H](Nc2ncc(-c3ccc(C(F)(F)F)cn3)c3ncccc23)C1 [Comparative Example A, (R)-1-(3-((8-(5-(trifluoromethyl)pyridin-2-yl)-1,6-naphthyridin-5-yl)amino)pyrrolidin-1-yl)prop-2-en-1-one, reference compound] | 0.592 µM | > 31.7 µM | – | –
5 | C=CC(=O)N1CC(Nc2nc(-c3ccc(C(F)(F)F)cc3)nc3ccccc23)C1 [Comparative Example B, 1-[3-({2-[4-(trifluoromethyl)phenyl]-4-quinazolinyl}amino)-1-azetidinyl]-2-propen-1-one, reference compound] | 0.161 µM | > 31.7 µM | 2 µM (≈ 0.797 µg/mL) | 0.03 µM
6 | C=CC(=O)N1C[C@H](F)[C@H](Nc2nnc(-c3ccc(C(F)(F)F)cc3)c3ncccc23)C1 [Example 1, 1-((3S,4R)-3-fluoro-4-((8-(4-(trifluoromethyl)phenyl)pyrido[2,3-d]pyridazin-5-yl)amino)pyrrolidin-1-yl)prop-2-en-1-one] | 0.067 µM | 27.3 µM | 209 µM (≈ 90.2 µg/mL) | 0.093 µM
7 | C=CC(=O)N1C[C@H](F)[C@H](Nc2nnc(-c3ccc(C(F)(F)F)cc3)c3cccnc23)C1 [Example 2, 1-((3S,4R)-3-fluoro-4-((5-(4-(trifluoromethyl)phenyl)pyrido[2,3-d]pyridazin-8-yl)amino)pyrrolidin-1-yl)prop-2-en-1-one] | 0.022 µM | 12.9 µM | 188 µM (≈ 81.1 µg/mL) | 0.056 µM
8 | C=CC(=O)N1C[C@@H](F)[C@H](Nc2nnc(-c3ccc(C(F)(F)F)cc3)c3ncccc23)C1 [Example 3, 1-((3R,4R)-3-fluoro-4-((8-(4-(trifluoromethyl)phenyl)pyrido[2,3-d]pyridazin-5-yl)amino)pyrrolidin-1-yl)prop-2-en-1-one] | 0.067 µM | 27.3 µM | 10 µM (≈ 4.31 µg/mL) | 0.093 µM
9 | C=CC(=O)N1C[C@@H](F)[C@H](Nc2nnc(-c3ccc(C(F)(F)F)cc3)c3cccnc23)C1 [Example 4, 1-((3R,4R)-3-fluoro-4-((5-(4-(trifluoromethyl)phenyl)pyrido[2,3-d]pyridazin-8-yl)amino)pyrrolidin-1-yl)prop-2-en-1-one] | 0.192 µM | 26 µM | 230 µM (≈ 99.2 µg/mL) | 0.41 µM
10 | C=CC(=O)N1C[C@H](F)[C@H](Nc2nnc(-c3ccc(C(F)(F)F)cc3)c3ccccc23)C1 [Example 10, 1-((3S,4R)-3-fluoro-4-((4-(4-(trifluoromethyl)phenyl)phthalazin-1-yl)amino)pyrrolidin-1-yl)prop-2-en-1-one] | 0.015 µM | 15.6 µM | 67 µM (≈ 28.8 µg/mL) | 0.032 µM
11 | C=CC(=O)N1C[C@@H](F)[C@H](Nc2nnc(-c3ccc(C(F)(F)F)cc3)c3ccccc23)C1 [Example 11, 1-((3R,4R)-3-fluoro-4-((4-(4-(trifluoromethyl)phenyl)phthalazin-1-yl)amino)pyrrolidin-1-yl)prop-2-en-1-one] | 0.156 µM | 10.2 µM | 9 µM (≈ 3.87 µg/mL) | 0.033 µM
12 | C=CC(=O)N1C[C@H](O)[C@H](Nc2nnc(-c3ccc(C(F)(F)F)cc3)c3ccccc23)C1 [Example 12, 1-((3S,4R)-3-hydroxy-4-((4-(4-(trifluoromethyl)phenyl)phthalazin-1-yl)amino)pyrrolidin-1-yl)prop-2-en-1-one] | 0.099 µM | 23.5 µM | 370 µM (≈ 159 µg/mL) | 0.052 µM
13 | C#CC(=O)N1CC[C@H](Nc2nnc(-c3ccc(C(F)(F)F)cc3)c3ccccc23)C1 [Example 19, (S)-1-(3-((4-(4-(trifluoromethyl)phenyl)phthalazin-1-yl)amino)pyrrolidin-1-yl)prop-2-yn-1-one] | 0.515 µM | 0.977 µM | 38 µM (≈ 15.6 µg/mL) | –
14 | C=CS(=O)(=O)N1CC[C@H](Nc2nnc(-c3ccc(C(F)(F)F)cc3)c3ccccc23)C1 [Example 21, (S)-4-(4-(trifluoromethyl)phenyl)-N-(1-(vinylsulfonyl)pyrrolidin-3-yl)phthalazin-1-amine] | 0.929 µM | 15.1 µM | 34 µM (≈ 15.2 µg/mL) | 0.042 µM
15 | C=CC(=O)N1C[C@H](O)[C@H](Nc2ncc(-c3ccc(C(F)(F)F)cc3)c3ncccc23)C1 [Example 34, 1-((3S,4R)-3-hydroxy-4-((8-(4-(trifluoromethyl)phenyl)-1,6-naphthyridin-5-yl)amino)pyrrolidin-1-yl)prop-2-en-1-one] | 0.009 µM | > 31.7 µM | 44 µM (≈ 18.9 µg/mL) | 0.017 µM
16 | C=CC(=O)N1C[C@H](O)[C@H](Nc2ncc(-c3ccc(C(F)(F)F)cn3)c3ncccc23)C1 [Example 35, 1-((3S,4R)-3-hydroxy-4-((8-(5-(trifluoromethyl)pyridin-2-yl)-1,6-naphthyridin-5-yl)amino)pyrrolidin-1-yl)prop-2-en-1-one] | 0.034 µM | > 31.7 µM | 801 µM (≈ 344 µg/mL) | 0.079 µM
17 | C=CC(=O)N1C[C@H](F)[C@H](Nc2ncc(-c3ccc(C(F)(F)F)cn3)c3ncccc23)C1 [Example 36, 1-((3S,4R)-3-fluoro-4-((8-(5-(trifluoromethyl)pyridin-2-yl)-1,6-naphthyridin-5-yl)amino)pyrrolidin-1-yl)prop-2-en-1-one] | 0.011 µM | > 31.7 µM | 82 µM (≈ 35.4 µg/mL) | –
18 | C=CC(=O)N1C[C@@H](CN(C)C)[C@H](Nc2nnc(-c3ccc(C(F)(F)F)cc3)c3ccccc23)C1 [Example 46, 1-((3R,4S)-3-((dimethylamino)methyl)-4-((4-(4-(trifluoromethyl)phenyl)phthalazin-1-yl)amino)pyrrolidin-1-yl)prop-2-en-1-one] | 0.283 µM | 19.4 µM | – | 0.83 µM
